For one series, the target named is LRRK2 G2019S (Homo sapiens (Human), UniProt Q5S007, G2019S). As to the kind of experiment: LRRK2 G2019S LanthaScreen TR-FRET kinase activity assay. It counts as biochemical. The conditions noted are these: 250 pM kinase, 1.3 mM ATP, n≥2 tests. (In general: In TR-FRET formats the signal depends on donor and acceptor labels being close together.)
The next series addresses LRRK2 WT (Homo sapiens (Human), UniProt Q5S007). In words: LRRK2 wild-type LanthaScreen TR-FRET kinase activity assay. It counts as biochemical. As to conditions: 1 nM kinase, 1.3 mM ATP, n≥2 tests.
Series [1] in a line: Hepatocyte intrinsic clearance assay. It counts as in vitro ADME, Human. As to conditions: pooled donor, cryopreserved hepatocytes, pH 7.4; human hepatocytes 1×10^6/mL; 0.05 μM; 2 h at 37° C. Here is the method:
(§1) Test compounds (final concentration 0.05 μM, 0.05% organic) were incubated for 2 h at 37° C., with shaking, in supplemented Leibovitz L-15 media (pH 7.4) containing commercially sourced, pooled donor, cryopreserved hepatocytes (final concentration 1×10^6 hepatocytes/mL). The CLint reactions (350 μL) were initiated by addition of test compound. Aliquots (25 μL) were taken at 1, 5, 10, 15, 30, 60, 90 and 120 minutes and then protein crashed with ice-cold acetonitrile containing internal standard (150 μL) then centrifuged (1960 g for 20 minutes at 4° C.). Supernatant was diluted (1:4) with deionized water then analyzed by liquid chromatography (LC)-tandem mass spectrometry (MS/MS).

Series [2] deals with panel of 403 wild type kinases. In words: Broad kinase selectivity, KINOMEscan scanMAX panel. It counts as binding, primarily of human origin. As to conditions: 10 nM. Here is the method: Protein kinase profiling of the inhibitors (Fabian, M. A. et al. A small molecule-kinase interaction map for clinical kinase inhibitors. Nat. Biotechnol. 23, 329-336 (2005)) were undertaken at a concentration of 0.010 μM and carried out in Eurofins DiscoverX KINOMEscan scanMAX panel of 403 wild type kinases (primarily of human origin) covering AGC (PKA, PKG, PKC family kinases), CAMK (Calcium/calmodulin-dependent protein kinases), CK1 (Casein kinase 1 kinases), CMGC (CDK, MAPK, GSK3, CLK families), STE (homologs of yeast Sterile 7, Sterile 11, Sterile 20 kinases), TK (Tyrosine kinases), TKL (Tyrosine kinase-like kinases), lipid and atypical kinase families.
Selectivity Score or S-score is a quantitative measure of compound selectivity. It was calculated by dividing the number of kinases that a compound binds to by the total number of distinct kinases tested, excluding mutant variants. S=Number of hits/Number of assays. This value can be calculated using % Ctrl as a potency threshold (below) and provides a quantitative method of describing compound selectivity to facilitate comparison of different compounds.

Series [3] concerns pooled donor, cryopreserved hepatocytes. In words: Hepatocyte intrinsic clearance assay. It counts as in vitro ADME, Human. As to conditions: based on hepatocyte CLint values of Table 5. Here is the method: as §1

Here are results for 7 compounds from patent US11958865B1, “Leucine-rich repeat kinase 2 (LRRK2) inhibitors” (H. Lundbeck A/S, priority 2022, dated 2024).

What is called IC50 is the point on the concentration scale where inhibition reaches its midpoint. The term CLint scaled denotes the capacity of the preparation to metabolise the compound, expressed as a volume cleared per time. A lower CLint scaled goes with greater metabolic stability.

Some results are limits rather than exact numbers.

Sequence of LRRK2 WT (Q5S007 970-2527): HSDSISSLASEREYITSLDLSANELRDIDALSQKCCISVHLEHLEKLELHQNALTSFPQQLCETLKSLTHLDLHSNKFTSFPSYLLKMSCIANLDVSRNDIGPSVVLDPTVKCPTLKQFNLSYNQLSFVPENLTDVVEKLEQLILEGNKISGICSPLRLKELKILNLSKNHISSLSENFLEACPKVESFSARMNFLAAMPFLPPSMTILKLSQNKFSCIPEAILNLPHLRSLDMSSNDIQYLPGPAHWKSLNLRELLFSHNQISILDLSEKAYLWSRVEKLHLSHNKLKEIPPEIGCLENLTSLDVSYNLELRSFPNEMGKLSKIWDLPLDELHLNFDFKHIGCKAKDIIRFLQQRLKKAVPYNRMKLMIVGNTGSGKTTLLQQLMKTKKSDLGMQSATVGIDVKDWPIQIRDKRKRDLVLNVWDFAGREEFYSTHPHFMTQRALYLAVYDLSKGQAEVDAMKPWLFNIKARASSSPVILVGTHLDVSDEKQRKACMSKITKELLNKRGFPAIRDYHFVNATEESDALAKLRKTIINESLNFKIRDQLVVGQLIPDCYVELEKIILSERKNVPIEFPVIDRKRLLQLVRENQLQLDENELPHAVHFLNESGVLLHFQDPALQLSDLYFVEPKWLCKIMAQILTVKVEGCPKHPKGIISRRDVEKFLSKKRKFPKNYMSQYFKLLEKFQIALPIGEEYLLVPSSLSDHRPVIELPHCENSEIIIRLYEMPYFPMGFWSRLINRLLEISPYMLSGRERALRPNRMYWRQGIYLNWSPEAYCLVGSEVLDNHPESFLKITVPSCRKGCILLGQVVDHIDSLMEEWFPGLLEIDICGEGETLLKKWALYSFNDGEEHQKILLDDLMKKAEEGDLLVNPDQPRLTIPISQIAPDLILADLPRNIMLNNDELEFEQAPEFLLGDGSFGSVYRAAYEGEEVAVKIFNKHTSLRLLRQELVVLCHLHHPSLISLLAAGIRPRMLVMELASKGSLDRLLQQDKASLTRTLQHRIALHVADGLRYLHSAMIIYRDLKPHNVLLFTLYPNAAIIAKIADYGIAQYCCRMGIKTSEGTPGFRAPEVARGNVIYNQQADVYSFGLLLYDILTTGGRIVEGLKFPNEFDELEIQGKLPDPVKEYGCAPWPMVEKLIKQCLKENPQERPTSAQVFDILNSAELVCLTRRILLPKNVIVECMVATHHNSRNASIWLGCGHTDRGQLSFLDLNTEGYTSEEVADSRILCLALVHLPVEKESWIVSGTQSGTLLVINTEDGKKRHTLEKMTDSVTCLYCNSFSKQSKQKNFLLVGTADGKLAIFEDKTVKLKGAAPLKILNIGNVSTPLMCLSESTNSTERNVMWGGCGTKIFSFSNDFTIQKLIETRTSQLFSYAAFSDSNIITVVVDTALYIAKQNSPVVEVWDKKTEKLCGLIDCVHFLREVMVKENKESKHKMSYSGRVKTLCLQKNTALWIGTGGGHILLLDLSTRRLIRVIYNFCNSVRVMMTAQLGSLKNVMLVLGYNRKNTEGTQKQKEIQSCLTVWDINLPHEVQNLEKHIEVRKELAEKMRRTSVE
Sequence of LRRK2 G2019S (Q5S007 970-2527 G2019S): as the sequence (Q5S007 970-2527) above, with G1050S counted along it

Turning to `COc1nc(C)ncc1-n1nc2c(c1C)Nc1ncc3c(Cl)nn(c3n1)CCCO2` [Example 22, 8-Chloro-2-(4-methoxy-2-methylpyrimidin-5-yl)-3-methyl-2,4,12,13-tetrahydro-11H-5,7-(azenometheno)dipyrazolo[3,4-b:5′,1′-g][1]oxa[4,6,8]triazacycloundecine], the IC50 is 0.59 nM at LRRK2 G2019S and 2.1 nM on LRRK2 WT. The intrinsic metabolic clearance (CLint scaled) at 0.05 μM in series [1] was less than 4 mL/min/kg.

In the case of `COc1nccc(C)c1-n1nc2c(c1C)Nc1ncc3c(Cl)nn(c3n1)CCCO2` [Example 7, 8-Chloro-2-(2-methoxy-4-methylpyridin-3-yl)-3-methyl-2,4,12,13-tetrahydro-11H-5,7-(azenometheno)dipyrazolo[3,4-b:5′,1′-g][1]oxa[4,6,8]triazacycloundecine], the half-maximal inhibitory concentration (IC50) at LRRK2 G2019S is 2.3 nM; at LRRK2 WT it was 6.9 nM. Further, in series [1], the CLint scaled at 0.05 μM is 7.83 mL/min/kg.

Regarding `COc1ncccc1-n1nc2c(c1C)Nc1ncc3c(Cl)nn(c3n1)CCCO2` [Example 1, 8-Chloro-2-(2-methoxypyridin-3-yl)-3-methyl-2,4,12,13-tetrahydro-11H-5,7-(azenometheno)dipyrazolo[3,4-b:5′,1′-g][1]oxa[4,6,8]triazacycloundecine], the half-maximal inhibitory concentration (IC50) on LRRK2 G2019S came to 0.45 nM; on LRRK2 WT, 1.1 nM. The “Selectivity Score S(1)” value in series [2] (hits with % Ctrl <1 / 403 non-mutant kinases) worked out at 0.005. Besides, in series [2] (hits with % Ctrl <10 / 403 non-mutant kinases), the “Selectivity Score S(10)” value was 0.01. For the same compound, the “Selectivity Score S(35)” value in series [2] (hits with % Ctrl <35 / 403 non-mutant kinases) was determined as 0.03. Besides, the “Number of Hits, S(1)” value in series [2] (kinases with % Ctrl <1, 403 non-mutant kinases, includes LRRK2 WT) is 2. The “Number of Hits, S(10)” value in series [2] (kinases with % Ctrl <10, 403 non-mutant kinases) came to 4. The “Number of Hits, S(35)” value in series [2] (kinases with % Ctrl <35, 403 non-mutant kinases) is listed as 12. For the same compound, in series [1], the CLint scaled at 0.05 μM is 10.7 mL/min/kg.

On to `Cc1c2c(nn1-c1cccnc1C(C)(F)F)OCCCn1nc(Cl)c3cnc(nc31)N2` [Example 14, 8-Chloro-2-(2-(1,1-difluoroethyl)pyridin-3-yl)-3-methyl-2,4,12,13-tetrahydro-11H-5,7-(azenometheno)dipyrazolo[3,4-b:5′,1′-g][1]oxa[4,6,8]triazacycloundecine], for which the IC50 at LRRK2 G2019S amounted to 4.2 nM; at LRRK2 WT it was 14 nM. Moreover, the intrinsic metabolic clearance (CLint scaled) at 0.05 μM in series [1] was 7.83 mL/min/kg.

For `Cc1nc(C)c(-n2nc3c(c2C)Nc2ncc4c(Cl)nn(c4n2)CCCO3)cc1F` [Example 15, 8-Chloro-2-(5-fluoro-2,6-dimethylpyridin-3-yl)-3-methyl-2,4,12,13-tetrahydro-11H-5,7-(azenometheno)dipyrazolo[3,4-b:5′,1′-g][1]oxa[4,6,8]triazacycloundecine], the IC50 on LRRK2 G2019S turned out to be 1.4 nM; on LRRK2 WT it was 4 nM. Moreover, the CLint scaled at 0.05 μM in series [1] is 12 mL/min/kg.

On to `COc1ncc(C)cc1-n1nc2c(c1C)Nc1ncc3c(Cl)nn(c3n1)CCCO2` [Example 12, 8-Chloro-2-(2-methoxy-5-methylpyridin-3-yl)-3-methyl-2,4,12,13-tetrahydro-11H-5,7-(azenometheno)dipyrazolo[3,4-b:5′,1′-g][1]oxa[4,6,8]triazacycloundecine], for which the half-inhibitory concentration (IC50) at LRRK2 G2019S was 0.13 nM; on LRRK2 WT, 0.4 nM. The intrinsic clearance (CLint scaled) at 0.05 μM in series [1] was 8 mL/min/kg.

On to `COc1nc(C)ccc1-n1nc2c(c1C)Nc1ncc3c(Cl)nn(c3n1)CCCO2` [Example 13, 8-Chloro-2-(2-methoxy-6-methylpyridin-3-yl)-3-methyl-2,4,12,13-tetrahydro-11H-5,7-(azenometheno)dipyrazolo[3,4-b:5′,1′-g][1]oxa[4,6,8]triazacycloundecine], for which the IC50 worked out at 0.22 nM at LRRK2 G2019S and 0.57 nM on LRRK2 WT. In series [1], this compound gave a CLint scaled at 0.05 μM of 31.3 mL/min/kg. Moreover, the “Rate of metabolism classification (hepatocyte CLint)” value in series [3] is on record as “moderate to high rate of metabolism”.
